In patent US20200377958A1, “BIOMARKERS AND METHODS FOR TREATMENT WITH NAE INHIBITORS” (Millennium Pharmaceuticals, Inc., priority 2017, published 2020):
Read-outs that look alike come from different tables or passages of the source.

Assays:
[1] = Phase 1b clinical study (NCT01814826): plasma PK of PEV in combination with AZA; type: in vivo, human; settings: for Cmax / half-life / Tmax: human; for Cmax / half-life / Tmax / AUC24 / AUC48: plasma; for Cmax / AUC24 / AUC48: geometric mean; for half-life: mean; for Tmax: median
Procedure: Serial blood samples for the determination of PEV concentrations were obtained during the first cycle of treatment, at pre-specified time points before and up to 48 hours after the start of the infusion on days 1 and 5.

[2] = single-agent PEV, cited from earlier work
AML cells = settings: cited from earlier work; for combination effect on viability: Combination Index and Blending Synergy Analysis
[3] = system: patients with relapsed/refractory AML and MDS; settings: single-agent PEV, cited from earlier work
patients with AML = patients with AML on the Austrian AZA registry; cited from earlier work
[4] = system: older unfit patients with increased marrow blasts (>30%); settings: cited from earlier work
[5] = intravenous, dose escalation, 20 mg/m^2 cohort (N = 6), cycle 1, day 1
[6] = intravenous, dose escalation, 20 mg/m^2 cohort (N = 6), cycle 1, day 5
[7] = intravenous, dose escalation, 30 mg/m^2 cohort (N = 3), cycle 1, day 1
[8] = iv, MTD expansion, IV AZA cohort (N = 26), cycle 1, day 1
[9] = iv, MTD expansion, IV AZA cohort (N = 26), cycle 1, day 5
[10] = sc, MTD expansion, SC AZA cohort (N = 28), cycle 1, day 1
[11] = sc, MTD expansion, SC AZA cohort (N = 28), cycle 1, day 5
[12] = dose escalation, 20 mg/m^2 cohort (N = 6), cycle 1, day 1
[13] = dose escalation, 20 mg/m^2 cohort (N = 6), cycle 1, day 5
[14] = dose escalation, 30 mg/m^2 cohort (N = 3), cycle 1, day 1
[15] = AZA-AML-001, randomized AZA or CCR

NS(=O)(=O)OC[C@@H]1C[C@@H](n2ccc3c(N[C@H]4CCc5ccccc54)ncnc32)C[C@@H]1O [PEV, ((1S,2S,4R)-4-{4-[(1S)-2,3-dihydro-1H-inden-1-ylamino]-7H-pyrrolo[2,3-d]pyrimidin-7-yl}-2-hydroxycyclopentyl)methyl sulfamate]
observed accumulation ratio Rac ([1]; day 5 versus day 1, five days of continuous dosing with AZA): ~1
Cmax [1, 5]: 158 ng/mL
half-life [1, 5]: 7.8 h
Tmax [1, 5]: 1.06 h
Cmax [1, 6]: 165 ng/mL
half-life [1, 6]: 7.98 h
Tmax [1, 6]: 0.99 h
Cmax [1, 7]: 299 ng/mL
half-life [1, 7]: 7.39 h
Tmax [1, 7]: 0.98 h
Cmax [1, 8]: 155 ng/mL
half-life [1, 8]: 7.45 h
Tmax [1, 8]: 1.01 h
Cmax [1, 9]: 164 ng/mL
half-life [1, 9]: 8.07 h
Tmax [1, 9]: 1 h
Cmax [1, 10]: 152 ng/mL
half-life [1, 10]: 7.3 h
Tmax [1, 10]: 1 h
Cmax [1, 11]: 148 ng/mL
half-life [1, 11]: 7.89 h
Tmax [1, 11]: 0.98 h
AUC24 ([1]; MTD expansion, IV AZA cohort (N = 26), cycle 1, day 1): 861 ng·h/mL
AUC24 ([1]; MTD expansion, IV AZA cohort (N = 26), cycle 1, day 5): 921 ng·h/mL
AUC48 ([1]; MTD expansion, IV AZA cohort, N = 12, cycle 1, day 1): 976 ng·h/mL
AUC48 ([1]; MTD expansion, IV AZA cohort, N = 13, cycle 1, day 5): 1100 ng·h/mL
AUC24 ([1]; MTD expansion, SC AZA cohort (N = 28), cycle 1, day 1): 890 ng·h/mL
AUC24 ([1]; MTD expansion, SC AZA cohort (N = 28), cycle 1, day 5): 926 ng·h/mL
AUC48 ([1]; MTD expansion, SC AZA cohort, N = 11, cycle 1, day 1): 1000 ng·h/mL
AUC48 ([1]; MTD expansion, SC AZA cohort, N = 18, cycle 1, day 5): 1100 ng·h/mL
AUC24 [1, 12]: 990 ng·h/mL
AUC48 [1, 12]: 1110 ng·h/mL
AUC24 [1, 13]: 986 ng·h/mL
AUC48 [1, 13]: 1090 ng·h/mL
AUC24 [1, 14]: 1640 ng·h/mL
AUC48 [1, 14]: 1770 ng·h/mL
PEV PK in the presence of AZA compared with historical single-agent data ([1]; systemic exposure): not altered
maximum tolerated dose (MTD) ([2]; schedule A: 1-hour IV infusion days 1, 3, 5 every 21 days): 59 mg/m^2
dose-limiting toxicity ([2]; schedule A): elevation of alanine aminotransferase (ALT)/aspartate aminotransferase (AST)
maximum tolerated dose (MTD) ([2]; schedule B: days 1, 4, 8, 11 every 21 days): 83 mg/m^2
dose-limiting toxicity ([2]; schedule B): Multi-organ failure (MOF)
DNA damage and cell death (AML cells; PEV combined with AZA compared with either agent alone, immunoblotting and flow cytometry): significantly increased DNA damage and cell death
combination effect on viability (AML cells; PEV with AZA): synergistically lethal
combination effect on viability (AML cells; PEV with decitabine): synergistically lethal
Overall response rate (ORR) ([3]; schedule A, patients treated at or below the MTD (4/23)): 17%
Overall response rate (ORR) ([3]; schedule B, patients treated at or below the MTD (2/19)): 10%
DLTs at starting dose (PEV 20 mg/m^2 (n=6) with AZA, dose escalation): absence of DLTs
final posterior estimate of probability of toxicity (PEV 20 mg/m^2, CRM model): 24%
DLTs in the MTD expansion cohort (PEV 20 mg/m^2 with AZA (n=55), grade ≥3 transaminase elevation): two additional patients experienced DLTs
patients who experienced a DLT (PEV 30 mg/m^2 dose level (n=3) with AZA, grade 2 bilirubin elevation, grade 4 AST elevation): two of the three
MTD for PEV (combined with AZA in standard doses, IV days 1, 3, 5 of 28-day cycles): 20 mg/m^2

Nc1ncn([C@@H]2O[C@H](CO)[C@@H](O)[C@H]2O)c(=O)n1 [AZA, azacitidine]
median OS (patients with AML): ~10 months
1-year survival [4, 15]: 46.5%
median OS [4, 15]: 10.4 months
response rates [4, 15]: 27.8%
composite CR/PR rate ([4]; patients randomized to AZA alone, large randomized French study (ref 6)): 29%
